Columns and labels:
Assay type in all cases: cell-based
[1] = target: T1, 17β-hydroxysteroid dehydrogenase type 1 (17β-HSD type 1) (Homo sapiens, UniProt P14061); test: Inhibition of 17β-HSD type 1 in MCF-7 cells stably expressing the isoenzyme (tritium labeled estrone conversion, HPLC); conditions: MCF-7 cells expressing 17β-HSD type 1, 2 nM tritium labeled estrone; for inhibition at 1 µM / inhibition at 10 µM: MCF7; for inhibition at 1 µM / % Inhibition HSD1 1 μM: 1 μM test compound; for inhibition at 1 µM: read-out: % Inhibition HSD1 1 μM; for inhibition at 10 µM / % Inhibition HSD1 10 μM: 10 μM test compound; for inhibition at 10 µM: read-out: % Inhibition HSD1 10 μM
T1 construct: expressed in transfected cells; host or cells: MCF-7
T1 sequence (P14061 1-328): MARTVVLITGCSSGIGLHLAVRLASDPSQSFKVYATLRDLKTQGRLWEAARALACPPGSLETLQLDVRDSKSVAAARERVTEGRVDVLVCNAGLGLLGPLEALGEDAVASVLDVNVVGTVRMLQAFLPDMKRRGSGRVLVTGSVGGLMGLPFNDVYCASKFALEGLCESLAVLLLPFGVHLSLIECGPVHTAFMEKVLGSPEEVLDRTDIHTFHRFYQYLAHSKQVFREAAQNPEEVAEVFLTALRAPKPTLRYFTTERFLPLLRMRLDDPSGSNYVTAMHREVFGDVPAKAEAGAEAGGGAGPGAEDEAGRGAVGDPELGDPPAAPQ
From the text: (§1) Biological Testing Materials and Methods 1. Inhibition of the 17β-hydroxysteroid dehydrocienase type 1, type 2 and type 3 enzyme
(§2) The compounds were screened in respect of 17β-HSD enzyme activity in vitro on established MCF-7 cell lines, each stably expressing one of the respective 17β-HSD isoenzymes. The interconversion of substrate by each isoenzyme and the 17β-HSD inhibiting activity of chemical compounds in these cell lines were detected by HPLC system.
(§3) Varying amounts of the test compounds were incubated in the growth medium of the 17β-HSD expressing cells together tritium labeled substrate (2 nM estrone for 17β-HSD type 1; 2 nM estradiol for 17β-HSD type 2; and 2 nM androstenedione for 17β-HSD type 3). The medium samples were removed after exact incubation time and the reaction is stopped by trichloroacetic acid (TCA). The samples were analyzed by HPLC-coupled flow scintillation analysis.
(§4) For each enzyme type, the HSD-inhibiting activity of an individual test compound was calculated by comparing the conversion of a control sample without any test compound (referred to as “Negative Control”) to the (reduced) conversion of the test sample containing the particular compound to be tested (referred to as “Test Sample”).
(§5) Two concentrations of each compound were used. The number of the compound refers to the numbers indicated in the Experimental Section.

[2] = target: T2, 17β-hydroxysteroid dehydrogenase type 3 (17β-HSD type 3) (Homo sapiens, UniProt P37058); test: Inhibition of 17β-HSD type 3 in MCF-7 cells stably expressing the isoenzyme (tritium labeled androstenedione conversion, HPLC); conditions: MCF-7 cells expressing 17β-HSD type 3, 2 nM tritium labeled androstenedione; for inhibition at 1 µM / inhibition at 10 µM: MCF7; for inhibition at 1 µM / % Inhibition HSD3 1 μM: 1 μM test compound; for inhibition at 1 µM: read-out: % Inhibition HSD3 1 μM; for inhibition at 10 µM / % Inhibition HSD3 10 μM: 10 μM test compound; for inhibition at 10 µM: read-out: % Inhibition HSD3 10 μM
T2 construct: expressed in transfected cells; host or cells: MCF-7
T2 sequence (P37058 1-310): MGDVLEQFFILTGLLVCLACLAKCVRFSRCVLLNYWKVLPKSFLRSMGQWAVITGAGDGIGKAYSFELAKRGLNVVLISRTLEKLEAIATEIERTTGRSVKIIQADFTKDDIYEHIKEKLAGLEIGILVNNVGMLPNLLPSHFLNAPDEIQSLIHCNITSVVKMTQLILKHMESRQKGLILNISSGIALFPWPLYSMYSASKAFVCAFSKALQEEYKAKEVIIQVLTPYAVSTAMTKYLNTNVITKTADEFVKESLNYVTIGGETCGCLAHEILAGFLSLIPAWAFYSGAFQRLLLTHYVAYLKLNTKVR
From the text: as §1, §2, §3, §4, §5

[3] = target: T3, 17β-hydroxysteroid dehydrogenase type 2 (17β-HSD type 2) (Homo sapiens, UniProt P37059); test: Inhibition of 17β-HSD type 2 in MCF-7 cells stably expressing the isoenzyme (tritium labeled estradiol conversion, HPLC); conditions: MCF-7 cells expressing 17β-HSD type 2, 2 nM tritium labeled estradiol; for inhibition at 1 µM / inhibition at 10 µM: MCF7; for inhibition at 1 µM / % Inhibition HSD2 1 μM: 1 μM test compound; for inhibition at 1 µM: read-out: % Inhibition HSD2 1 μM; for inhibition at 10 µM / % Inhibition HSD2 10 μM: 10 μM test compound; for inhibition at 10 µM: read-out: % Inhibition HSD2 10 μM
T3 construct: expressed in transfected cells; host or cells: MCF-7
T3 sequence (P37059 1-387): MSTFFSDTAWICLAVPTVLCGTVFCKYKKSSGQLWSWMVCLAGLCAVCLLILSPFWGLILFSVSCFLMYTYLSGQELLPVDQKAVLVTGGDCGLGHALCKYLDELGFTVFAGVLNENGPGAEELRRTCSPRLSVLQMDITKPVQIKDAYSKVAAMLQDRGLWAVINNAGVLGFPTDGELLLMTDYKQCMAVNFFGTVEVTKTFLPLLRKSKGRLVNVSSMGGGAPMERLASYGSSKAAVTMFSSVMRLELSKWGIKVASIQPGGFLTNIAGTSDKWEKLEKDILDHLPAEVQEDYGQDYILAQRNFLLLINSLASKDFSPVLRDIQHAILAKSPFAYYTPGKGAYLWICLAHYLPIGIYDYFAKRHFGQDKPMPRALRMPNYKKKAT
From the text: as §1, §2, §3, §4, §5

Compound	inhibition at 1 µM [1]	inhibition at 10 µM [1]	inhibition at 1 µM [2]	inhibition at 10 µM [2]	inhibition at 1 µM [3]	inhibition at 10 µM [3]	% Inhibition HSD1 1 μM [1]	% Inhibition HSD1 10 μM [1]	% Inhibition HSD3 1 μM [2]	% Inhibition HSD3 10 μM [2]	% Inhibition HSD2 1 μM [3]	% Inhibition HSD2 10 μM [3]
COCc1nc2sc3c(Cl)c(C=O)c(C(=O)O)c(O)c3c2c(=O)n1Cc1ccccc1 [No. 35, 3-Benzyl-8-chloro-7-formyl-5-hydroxyl-2-methoxymethyl-4-oxo-benzo[4,5]thieno[2,3-d]pyrimidine-6-carboxylic acid]	8.8%	28.6%	14.7%	82.3%	-6.8%	28.7%	–	–	–	–	–	–
COc1cc(-c2nc3sc4c(Cl)c(C=O)ccc4c3c(=O)n2Cc2ccccc2)c(Cl)c(OC)c1OC [No. 150, 3-Benzyl-8-chloro-2-(2-chloro-3,4,5-trimethoxyphenyl)-4-oxo-3,4-dihydro-benzo[4,5]thieno[2,3-d]pyrimidine-7-carbaldehyde]	0.4%	3.4%	-1.1%	22%	6.4%	11.4%	–	–	–	–	–	–
O=c1c2c3c(sc2nc(-c2ccccc2)n1Cc1ccccc1)CCCC3 [No. 56, 3-Benzyl-2-phenyl-5,6,7,8-tetrahydro-3H-benzo[4,5]thieno[2,3-d]pyrimidin-4-one]	21.3%	33.2%	14.7%	41.9%	18.8%	24.5%	–	–	–	–	–	–
COc1cc(-c2nc3sc4c(c3c(=O)n2Cc2ccccc2)CCC(Br)C4=O)cc(OC)c1OC (centres unmarked) [No. 46, 3-benzyl-7-bromo-2-(3,4,5-trimethoxyphenyl)-6,7-dihydro-3H,5H-benzo[4,5]thieno[2,3-d]pyrimidine-4,8-dione]	32.1%	72.2%	31.4%	37.1%	44%	20.9%	–	–	–	–	–	–
O=C1c2sc3nc(-c4ccc(Br)s4)n(Cc4ccccc4)c(=O)c3c2CCC1(Br)Br [No. 66, 3-Benzyl-7,7-dibromo-2-(5-bromothiophen-2-yl)-6,7-dihydro-3H,5H-benzo[4,5]thieno[2,3-d]pyrimidine-4,8-dione]	7.8%	8.9%	0.3%	7.4%	27%	37.6%	–	–	–	–	–	–
O=c1c2c(nc(CCC3CCCC3)n1CCc1ccccc1)sc1c(O)cccc12 [No. 627]	–	–	–	–	–	–	25.2%	26.6%	10.7%	33.9%	27.1%	22.6%
CCCc1nc2sc3c(c2c(=O)n1Cc1ccc(Br)o1)CCC(Br)C3=O (centres unmarked) [No. 103, 7-Bromo-3-(5-bromofuran-2-ylmethyl)-2-propyl-6,7-dihydro-3H,5H-benzo[4,5]thieno[2,3-d]pyrimidine-4,8-dione]	16.2%	70.6%	-7.7%	51.8%	30.7%	49.7%	–	–	–	–	–	–
CCCCC(CC)c1nc2sc3c(O)cccc3c2c(=O)n1CCc1ccccc1 (centres unmarked) [No. 628]	–	–	–	–	–	–	11.4%	32.4%	12.4%	36.1%	−0.9%	22.5%
COc1cc(-c2nc3sc4c(c3c(=O)n2-c2ccccc2)CCCC4)cc(OC)c1OC [No. 10, 3-Phenyl-2-(3,4,5-trimethoxyphenyl)-5,6,7,8-tetrahydro-3H-benzo[4,5]thieno[2,3-d]pyrimidin-4-one]	12.7%	35.1%	-4.4%	10.9%	18.1%	23.7%	–	–	–	–	–	–
COc1cc(-c2nc3sc4c(OC)cccc4c3c(=O)n2Cc2ccccc2)cc(OC)c1OC [No. 138, 3-Benzyl-8-methoxy-2-(3,4,5-trimethoxyphenyl)-3H-benzo[4,5]thieno[2,3-d]pyrimidin-4-one]	20.6%	21.5%	6.8%	23%	25.7%	24.8%	–	–	–	–	–	–
COc1cc(-c2nc3sc4c(c3c(=O)n2Cc2ccccc2)C(C)CC(Br)C4=O)c(Br)c(OC)c1OC (centres unmarked) [No. 685, 3-Benzyl-7-bromo-2-(2-bromo-3,4,5-trimethoxyphenyl)-5-methyl-6,7-dihydro-3H,5H-benzo[4,5]thieno[2,3-d]pyrimidine-4,8-dione]	16.6%	31.2%	5.1%	13.8%	22.7%	19.9%	–	–	–	–	–	–
Cc1nc2sc3c(c2c(=O)n1-c1ccccc1)CCC(Br)C3=O (centres unmarked) [No. 44, 7-Bromo-2-methyl-3-phenyl-6,7-dihydro-3H,5H-benzo[4,5]thieno[2,3-d]pyrimidine-4,8-dione]	10.5%	55.6%	-22.5%	26.3%	2.2%	16.3%	–	–	–	–	–	–
CCCc1nc2sc3c(O)c(Br)ccc3c2c(=O)n1Cc1ccc(Br)o1 [No. 107, 7-Bromo-3-(5-bromofuran-2-ylmethyl)-8-hydroxy-2-propyl-3H-benzo[4,5]thieno[2,3-d]pyrimidin-4-one]	-14.2%	24.7%	3.2%	44.3%	25.4%	45.7%	–	–	–	–	–	–
O=c1c2c3c(sc2nc(CO)n1Cc1ccccc1)CCCC3 [No. 28, 3-Benzyl-2-hydroxymethyl-5,6,7,8-tetrahydro-3H-benzo[4,5]thieno[2,3-d]pyrimidin-4-one]	2.6%	18%	1.9%	16.7%	12.9%	16.3%	–	–	–	–	–	–
COc1cc(-c2nc3sc4ccccc4c3c(=O)n2Cc2ccccc2)c(Br)c(OC)c1OC [No. 51, 3-benzyl-2-(2-bromo-3,4,5-trimethoxyphenyl)-3H-benzo[4,5]thieno[2,3-d]pyrimidin-4-one]	9.9%	9.1%	–	–	16.6%	30.7%	–	–	–	–	–	–
COc1cc(-c2nc3sc4c(O)cccc4c3c(=O)n2CC(C)C)cc(OC)c1OC [No. 151, 8-Hydroxy-3-isobutyl-2-(3,4,5-trimethoxyphenyl)-3H-benzo[4,5]thieno[2,3-d]pyrimidin-4-one]	21.2%	52.7%	–	–	14.6%	22.1%	–	–	–	–	–	–
